{
  "source": "patent US11890318B2",
  "about": "“Methods and compositions for modulating appetite and intake of sodium” (California Institute of Technology, priority 2019, dated 2024)",
  "key": {"[1]": {"system": "pre-LC^PDYN neurons expressing hM4Di", "test": "Slice electrophysiology, chemogenetic (hM4Di) inhibition by CNO", "assay_type": "cell-based", "settings": "AAV-DIO-hM4Di-mCherry; 10 μM CNO puffed 10 sec; 2 mice; FIG. 8E", "quoted_text": "250-μm coronal slices were obtained using a vibratome (VT-1000s, Leica) in ice-cold sucrose-aCSF (artificial cerebrospinal fluid) solution (Sucrose 213, KCl 2.5, NaH2PO4 1.2, NaHCO3 25, glucose 10, MgSO4 7, CaCl2 1, in mM at pH 7.3), and then incubated in HEPES-holding aCSF (NaCl 92, KCl 2.5, NaH2PO4 1.2, NaHCO3 30, HEPES 20, glucose 25, Na-ascorbate 5, thiourea 2, Na-pyruvate 3, MgSO4 2, CaCl2 2, in mM at pH 7.3-7.4). Slices were recovered at 34.5° C. for 45 min and then held at room temperature until use.\nFor patch-clamp recording, slices were placed in a recording chamber perfused with aCSF (NaCl 124, KCl 2.5, NaH2PO4 1.2, NaHCO3 25, glucose 10, MgSO4 1, CaCl2 2, in mM, at pH 7.3) on an upright microscope (Examiner.D1, Zeiss). Whole-cell recordings were achieved using glass pipettes (5-8 MΩ) filled with intracellular solution (for DREADD and iC++ experiments, K-gluconate 145, NaCl 2, KCl 4, HEPES 10, EGTA 0.2, Mg-ATP 4, Na-GTP 0.3; for GABAergic postsynaptic currents, CsCl 145, NaCl 2, HEPES 10, EGTA 0.2, QX-314 bromide 5, Mg-ATP 4, Na-GTP 0.3, in mM at pH 7.25; for glutamatergic postsynaptic currents, Cs(CH3)SO3 145, NaCl 2, HEPES 10, EGTA 0.2, QX-314 bromide 5, Mg-ATP 4, Na-GTP 0.3, in mM, at pH 7.25). Electrical signals were filtered at 3 k Hz with Axon MultiClamp 700B (Molecular Devices) and collected at 20 kHz with Axon Digidata 1550A (Molecular Devices). […]"}, "pre-LC^PDYN neurons [2]": {"system": "pre-LC^PDYN neurons", "test": "Chemogenetic manipulation, sodium and water consumption", "assay_type": "in vivo, mice", "settings": "CNO 10 mg/kg intraperitoneal", "text": "For ChR2 photostimulation. 473 nm laser pulses (20 ms, 20 Hz) were delivered via an optic cable (MFP-FC-ZF, Doric Lenses) using a pulse generator (Sapphire 9200 from Quantum composers or SYS-A310 from WPI). The laser intensity was maintained at 5-10 mW at the tip of the fiber. Unless otherwise noted, photostimulation was delivered for 1 s at 3 s intervals throughout the behavior session. For iC++ photoinhibition, 473 nm laser was continuously turned on throughout the session at 3 mW at the tip of the fiber. For chemogenetic manipulation (FIGS. 8E-H), CNO (Sigma, 10 mg/kg) or vehicle (water) was administered intraperitoneal 20 min before the sodium consumption experiment.\nTo induce sodium appetite, animals were injected with furosemide (Sigma) at a dose of 50 mg/kg body weight. Low sodium diet (TD. 90228, ENVIGO) was provided for 2 days after the injection of furosemide. For water-restriction experiments, animals were kept in their home cage without water, and were provided with 1 mL of water daily. For food restriction experiments, animals were deprived of food up to 24 hrs with normal water provided. All assays were performed in a custom gustometer (Dialog Instruments) or Biodaq monitoring system (Research Diets Inc). All sodium-depleted animals were trained in a gustometer before experiments. Animals which licked at least 150 licks during the 30-min session were used for further behavioral assays. After every sodium-depletion round, animals were recovered for at least 4 days with the normal diet.\n(§1) For appetite specificity assay (FIG. 7C), three different solutions were presented to animals during the same session, and their preference was measured as a lick number. For each trial, 20 sec of photostimulation was delivered to the animal with an inter-trial-interval of 60 secs. Water, 0.5 M KCl, 0.5 M NaCl, or 0.5 M NaCl+30 μM amiloride was used for preference assay. For sodium consumption assay (FIGS. 1E, 1G, and 1H), animals were given ad libitum access to 0.5 M NaCl, water or an empty spout for either 7.5 or 30 min."}, "pre-LC^PDYN neurons [3]": {"system": "pre-LC^PDYN neurons", "test": "Fibre photometry recording of GCaMP6s signals from pre-LC^PDYN neurons during ingestion or IG infusion", "assay_type": "in vivo, mice", "protocol": "For photometry recording, animals were given either 5- or 10-minutes access to stimuli. To examine sodium specific responses of pre-LC^PDYN neurons (FIGS. 3D, 3E), animals were presented with three solutions during the session. First, animals were given 5 min access to 0.5 M KCl (FIG. 3D) or 0.5 M NaCl+0.1 mM amiloride (FIG. 3E). Then animals had 5 min access to water. Finally, animals were given 5 min access to 0.5 M NaCl. The interval between trials was 5 min. In FIG. 4B, 0.5 M NaCl, deionized water, or glucose solution (5 M) was infused via an intragastric catheter. Solutions were delivered at 0.1 ml/min for 5 min (water and sodium) or 10 min (food) using an infusion syringe pump (NE-300, New Era Pump Systems Inc). 10 min after gastric infusion, animals were given access to nutrients and their consumption was quantified for 10 min (for water and 0.5 M NaCl), or 30 min (for normal chow). Either air infusion (for water), or water infusion (for sodium and food) was used as a control stimulus. In FIG. 4D, either 0.15 M NaCl, water, or air was infused at a rate of 0.1 ml/min while recording the neural activity by photometry. For control, oral ingestion (FIG. 4C), the same set of animals were given access to 0.15 M NaCl. For all photometry assays, animals were acclimatized for 10-15 min in the chamber before stimuli were presented. Bulk fluorescence signals were collected using fibre photometry as previously described. Briefly, data were extracted and subjected to a low-pass filter at 1.8 Hz. A linear function was used to scale up the 405-nm channel signal to the 490-nm channel signal to obtain the fitted 405-nm signal. The resultant ΔF/F was calculated as (raw 490 nm signal−fitted 405 nm signal)/(fitted 405 nm signal). ΔF/F was then time-binned by a factor of 2.5 times the sampling frequency and down-sampled to 10 Hz. For all bouts, the mean fluorescence for 5 min before the first lick was calculated and subtracted from the entire session. The licks from the lickometer were simultaneously recorded. The area under the curve (AUC) was quantified by integrating the baseline-subtracted fluorescence signals for 30 sec after the start of the bout. For FIG. 10D, the data were quantified as ΔF/F change between 1 sec prior to, and at the first lick (0 sec). For IG infusion experiments (FIG. 4E), AUC was quantified during the 5-min of infusion."}, "[4]": {"test": "Intragastric infusion and subsequent ingestive behavior", "assay_type": "in vivo", "settings": "sodium-depleted mice", "protocol": "In FIG. 4B, 0.5 M NaCl, deionized water, or glucose solution (5 M) was infused via an intragastric catheter. Solutions were delivered at 0.1 ml/min for 5 min (water and sodium) or 10 min (food) using an infusion syringe pump (NE-300, New Era Pump Systems Inc). 10 min after gastric infusion, animals were given access to nutrients and their consumption was quantified for 10 min (for water and 0.5 M NaCl), or 30 min (for normal chow). Either air infusion (for water), or water infusion (for sodium and food) was used as a control stimulus. In FIG. 4D, either 0.15 M NaCl, water, or air was infused at a rate of 0.1 ml/min while recording the neural activity by photometry. For control, oral ingestion (FIG. 4C), the same set of animals were given access to 0.15 M NaCl."}, "[5]": {"system": "Pre-LC^PDYN-stimulated animals", "test": "Preference assay (appetite specificity) under photostimulation of pre-LC^PDYN neurons", "assay_type": "in vivo, mice", "settings": "photostimulated animals; 0.5 M NaCl+30 μM amiloride; FIG. 7C", "protocol": "as §1"}, "dBNST→pre-LC neurons": {"system": "dBNST→pre-LC neurons", "test": "Optical recording of calcium responses of dBNST→pre-LC neurons", "assay_type": "in vivo, mice", "settings": "sodium-depleted conditions; FIG. 5F", "protocol": "For all photometry assays, animals were acclimatized for 10-15 min in the chamber before stimuli were presented. Bulk fluorescence signals were collected using fibre photometry as previously described. Briefly, data were extracted and subjected to a low-pass filter at 1.8 Hz. A linear function was used to scale up the 405-nm channel signal to the 490-nm channel signal to obtain the fitted 405-nm signal. The resultant ΔF/F was calculated as (raw 490 nm signal−fitted 405 nm signal)/(fitted 405 nm signal). ΔF/F was then time-binned by a factor of 2.5 times the sampling frequency and down-sampled to 10 Hz. For all bouts, the mean fluorescence for 5 min before the first lick was calculated and subtracted from the entire session. The licks from the lickometer were simultaneously recorded. The area under the curve (AUC) was quantified by integrating the baseline-subtracted fluorescence signals for 30 sec after the start of the bout. For FIG. 10D, the data were quantified as ΔF/F change between 1 sec prior to, and at the first lick (0 sec). For IG infusion experiments (FIG. 4E), AUC was quantified during the 5-min of infusion.\nTo label the dBNST→pre-LC circuit, 100 nl of CAV-Cre was injected into the pre-LC followed by the injection of AAV5-DIO-mCherry or AAV1-flex-GCaMP6S into the dBNST. These animals were used for experiments at least two weeks after the injection."}},
  "note": "“Also recorded” adds a separate entry of the source.",
  "data": [
    {"smiles": "C[N+]1([O-])CCN(C2=Nc3cc(Cl)ccc3Nc3ccccc32)CC1", "note": "[CNO, clozapine N-oxide]", "values": [
      {"measurement": "pre-LC^PDYN neurons inhibited by CNO", "setting": "[1]", "value": "13 out of 14"},
      {"measurement": "thirst or sodium appetite in control animals", "setting": "pre-LC^PDYN neurons [2]; AAV-DIO-mCherry injected animals, FIG. 8H", "value": "did not affect thirst or sodium appetite"},
      {"measurement": "thirst under chemogenetic inhibition", "setting": "pre-LC^PDYN neurons [2]; hM4Di, FIG. 8G", "value": "did not affect thirst"},
      {"measurement": "sodium intake under chemogenetic inhibition", "setting": "pre-LC^PDYN neurons [2]; hM4Di, sodium-depleted animals, FIG. 8G", "value": "reduced sodium intake"}
    ]},
    {"smiles": "[Cl-].[K+]", "note": "[KCl]", "values": [
      {"measurement": "pre-LC^PDYN neuron activity upon ingestion of KCl", "setting": "pre-LC^PDYN neurons [3]; sodium-depleted animals, 0.5 M KCl, FIG. 3D", "value": "no suppression was observed; also recorded: did not affect"}
    ]},
    {"smiles": "[Cl-].[Na+]", "note": "[NaCl]", "values": [
      {"measurement": "pre-LC^PDYN neuron activity, low concentration of NaCl", "setting": "pre-LC^PDYN neurons [3]; 0.06 M NaCl, FIG. 10B", "value": "exhibited inhibitory effects"},
      {"measurement": "pre-LC^PDYN neuron activity after brief NaCl intake", "setting": "pre-LC^PDYN neurons [3]; NaCl intake for 1 sec, FIG. 3F", "value": "robust suppression for several minutes; also recorded: induced persistent suppression"},
      {"measurement": "neural activity of pre-LC^PDYN neurons, IG infusion of NaCl", "setting": "pre-LC^PDYN neurons [3]; intragastric infusion, 0.15 M NaCl, 0.1 ml/min, FIGS. 4D and 4E", "value": "no inhibitory effect; also recorded: not affected"},
      {"measurement": "neural activity of pre-LC^PDYN neurons, oral NaCl consumption", "setting": "pre-LC^PDYN neurons [3]; oral, 0.15 M NaCl, FIGS. 4C and 4E", "value": "drastically reduced"},
      {"measurement": "subsequent sodium ingestion after gastric preloading of NaCl", "setting": "[4]; IG 0.5 M NaCl, 0.1 ml/min for 5 min, FIG. 4B left", "value": "did not affect"},
      {"measurement": "appetite reduction after a long period of IG infusion", "setting": "[4]; IG NaCl, after 2 hrs", "value": "41.3±6.0", "unit": "%"},
      {"measurement": "sodium appetite after oral NaCl contact", "setting": "[4]; oral, FIG. 4B left", "value": "quickly quenched the appetite"}
    ]},
    {"smiles": "N=C(N)NC(=O)c1nc(Cl)c(N)nc1N", "note": "[amiloride, reference compound]", "values": [
      {"measurement": "NaCl-induced suppression of pre-LC^PDYN neurons with amiloride", "setting": "pre-LC^PDYN neurons [3]; sodium-depleted animals, 0.5 M NaCl+0.1 mM amiloride, FIG. 3E", "value": "fully abolished; also recorded: eliminated inhibition"},
      {"measurement": "NaCl consumption in the presence of amiloride", "setting": "[5]", "value": "reduced"},
      {"measurement": "responses of dBNST→pre-LC neurons upon NaCl intake with amiloride", "setting": "dBNST→pre-LC neurons", "value": "strongly inhibited"}
    ]}
  ]
}
